Where a name gives a salt, the structure may show the parent alone.

Assay [1] concerns the target T1, hNav1.7 (Homo sapiens (Human), UniProt Q15858). As to the kind of experiment: Patch voltage clamp electrophysiology assay (EP), Syncropatch 384PE, CHO cells expressing Nav1.7. The assay is classed as cell-based. As to conditions: holding potential -50 mV; […] compound incubation; read-out: EP_SP hNav1.7 (Ex. 243B) IC50. The procedure:
Electrophysiological Assay (EP) (In Vitro Assay)
The following voltage clamp electrophysiology studies were performed on representative compounds using cells heterologously expressing Nav1.7 or Nav1.5 channels. cDNAs for Nav1.7 (NM_002977) and Nav1.5 (AC137587) were stably expressed in Chinese Hamstr Ovary (CHO) cells and CHL (Chinese Hamster Lung) cells respectively. […] Internal solution consists of (in mM): 110 […], 10 […], 20 EGTA, and 10 Hepes (pH adjusted to 7.2); and external solution contains (in mM): 60 NMDG, 80 NaCl, 4 KCl, 1 MgCl2, 2 CaCl2, 2 D-Glucose monohydrate, 10 Hepes (pH adjusted to 7.4 with NaOH).
The chip is moved into the measuring head and the instrument primes the chip with external and internal solutions. […] cells are added to the chip from a cell hotel, and a negative pressure of −50 mBar is applied to form a seal. Following treatment with seal enhancer solution and wash-off with external solution, negative pressure of −250 mbar is applied for 1 second to achieve the whole-cell configuration, followed by three washing steps in external solution. 20 μl of compounds is added to 40 μl in each well (1:3 dilution of compounds), and after mixing, 20 μl is removed so the volume is retained at 40 μl.
For voltage protocol, an holding potential of −50 mV is applied during the whole experiment. A depolarizing step is applied to −10 mV for 10 ms, followed by a hyperpolarization step to −150 mV for 20 ms to allow channel recovery from inactivation. A second depolarizing step is applied from −150 mV to −10 mV for 10 ms, where currents were measured to derive blocking effects of compounds. Inhibition is determined based on 7.5 min of compound incubation.
On the technique in general: Patch clamp records ionic current or voltage across a cell membrane.
Target sequence in this assay (Q15858 other isoform, or with tags, fused parts or gaps): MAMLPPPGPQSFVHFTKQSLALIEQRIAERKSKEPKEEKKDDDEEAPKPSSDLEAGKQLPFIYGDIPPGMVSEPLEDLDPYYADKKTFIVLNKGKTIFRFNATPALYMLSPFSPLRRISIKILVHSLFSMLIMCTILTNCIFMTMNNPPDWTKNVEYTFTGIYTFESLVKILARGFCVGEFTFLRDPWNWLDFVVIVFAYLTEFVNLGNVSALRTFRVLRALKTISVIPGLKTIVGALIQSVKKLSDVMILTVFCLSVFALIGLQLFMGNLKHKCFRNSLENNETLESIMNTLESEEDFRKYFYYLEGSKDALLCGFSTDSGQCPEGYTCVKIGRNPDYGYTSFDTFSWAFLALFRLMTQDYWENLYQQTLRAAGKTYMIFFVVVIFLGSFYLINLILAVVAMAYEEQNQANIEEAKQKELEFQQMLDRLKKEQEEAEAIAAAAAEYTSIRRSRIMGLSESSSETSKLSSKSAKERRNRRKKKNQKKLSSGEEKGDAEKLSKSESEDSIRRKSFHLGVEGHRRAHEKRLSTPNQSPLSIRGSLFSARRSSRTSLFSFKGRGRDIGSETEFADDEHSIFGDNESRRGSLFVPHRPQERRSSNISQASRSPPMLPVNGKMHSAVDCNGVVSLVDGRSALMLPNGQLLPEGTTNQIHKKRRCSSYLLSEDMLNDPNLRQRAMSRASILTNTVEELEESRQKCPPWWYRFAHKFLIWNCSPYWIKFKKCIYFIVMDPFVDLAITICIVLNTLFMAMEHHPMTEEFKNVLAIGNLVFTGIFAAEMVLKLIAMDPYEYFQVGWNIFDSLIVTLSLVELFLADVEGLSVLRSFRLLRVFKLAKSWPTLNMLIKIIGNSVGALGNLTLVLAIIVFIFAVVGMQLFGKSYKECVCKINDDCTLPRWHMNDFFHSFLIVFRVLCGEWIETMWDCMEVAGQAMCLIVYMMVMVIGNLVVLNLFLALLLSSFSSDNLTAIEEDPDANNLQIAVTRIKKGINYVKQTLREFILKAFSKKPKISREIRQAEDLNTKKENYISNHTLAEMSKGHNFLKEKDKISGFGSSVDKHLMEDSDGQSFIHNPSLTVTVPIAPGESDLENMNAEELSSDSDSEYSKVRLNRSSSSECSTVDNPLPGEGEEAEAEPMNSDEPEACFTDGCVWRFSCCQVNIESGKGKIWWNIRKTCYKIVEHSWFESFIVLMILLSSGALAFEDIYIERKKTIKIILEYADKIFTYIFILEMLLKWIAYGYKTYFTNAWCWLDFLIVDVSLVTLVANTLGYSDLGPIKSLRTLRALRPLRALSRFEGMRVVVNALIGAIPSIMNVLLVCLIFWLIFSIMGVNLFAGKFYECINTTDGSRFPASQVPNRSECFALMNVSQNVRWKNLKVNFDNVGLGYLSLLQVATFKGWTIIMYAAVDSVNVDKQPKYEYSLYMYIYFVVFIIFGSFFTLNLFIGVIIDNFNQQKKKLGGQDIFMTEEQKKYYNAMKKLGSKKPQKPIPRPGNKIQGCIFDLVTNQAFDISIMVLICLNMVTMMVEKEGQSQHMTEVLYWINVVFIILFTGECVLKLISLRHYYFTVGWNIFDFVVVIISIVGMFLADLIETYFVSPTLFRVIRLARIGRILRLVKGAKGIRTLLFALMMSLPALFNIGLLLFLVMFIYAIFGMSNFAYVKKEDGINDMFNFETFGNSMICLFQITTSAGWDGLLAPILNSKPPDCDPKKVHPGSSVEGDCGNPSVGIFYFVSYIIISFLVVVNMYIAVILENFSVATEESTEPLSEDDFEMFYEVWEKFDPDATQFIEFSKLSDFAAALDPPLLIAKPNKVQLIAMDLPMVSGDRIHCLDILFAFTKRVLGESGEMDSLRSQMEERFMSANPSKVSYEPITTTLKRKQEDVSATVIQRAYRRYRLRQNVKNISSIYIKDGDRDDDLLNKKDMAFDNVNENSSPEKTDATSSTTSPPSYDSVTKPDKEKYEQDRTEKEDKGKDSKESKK

The target in assay [2] is T1, hNav1.7. Kind of assay: Tritiated compound binding to membranes from cells expressing hNav1.7 and the β1 subunit, modified protocol (LBA, Ex. 243B). As to conditions: 300 pM [3H]compound, room temperature, read-out: Nav1.7 LBA (Ex. 243B) IC50.
Target sequence in this assay (Q15858 whole entry, looked up): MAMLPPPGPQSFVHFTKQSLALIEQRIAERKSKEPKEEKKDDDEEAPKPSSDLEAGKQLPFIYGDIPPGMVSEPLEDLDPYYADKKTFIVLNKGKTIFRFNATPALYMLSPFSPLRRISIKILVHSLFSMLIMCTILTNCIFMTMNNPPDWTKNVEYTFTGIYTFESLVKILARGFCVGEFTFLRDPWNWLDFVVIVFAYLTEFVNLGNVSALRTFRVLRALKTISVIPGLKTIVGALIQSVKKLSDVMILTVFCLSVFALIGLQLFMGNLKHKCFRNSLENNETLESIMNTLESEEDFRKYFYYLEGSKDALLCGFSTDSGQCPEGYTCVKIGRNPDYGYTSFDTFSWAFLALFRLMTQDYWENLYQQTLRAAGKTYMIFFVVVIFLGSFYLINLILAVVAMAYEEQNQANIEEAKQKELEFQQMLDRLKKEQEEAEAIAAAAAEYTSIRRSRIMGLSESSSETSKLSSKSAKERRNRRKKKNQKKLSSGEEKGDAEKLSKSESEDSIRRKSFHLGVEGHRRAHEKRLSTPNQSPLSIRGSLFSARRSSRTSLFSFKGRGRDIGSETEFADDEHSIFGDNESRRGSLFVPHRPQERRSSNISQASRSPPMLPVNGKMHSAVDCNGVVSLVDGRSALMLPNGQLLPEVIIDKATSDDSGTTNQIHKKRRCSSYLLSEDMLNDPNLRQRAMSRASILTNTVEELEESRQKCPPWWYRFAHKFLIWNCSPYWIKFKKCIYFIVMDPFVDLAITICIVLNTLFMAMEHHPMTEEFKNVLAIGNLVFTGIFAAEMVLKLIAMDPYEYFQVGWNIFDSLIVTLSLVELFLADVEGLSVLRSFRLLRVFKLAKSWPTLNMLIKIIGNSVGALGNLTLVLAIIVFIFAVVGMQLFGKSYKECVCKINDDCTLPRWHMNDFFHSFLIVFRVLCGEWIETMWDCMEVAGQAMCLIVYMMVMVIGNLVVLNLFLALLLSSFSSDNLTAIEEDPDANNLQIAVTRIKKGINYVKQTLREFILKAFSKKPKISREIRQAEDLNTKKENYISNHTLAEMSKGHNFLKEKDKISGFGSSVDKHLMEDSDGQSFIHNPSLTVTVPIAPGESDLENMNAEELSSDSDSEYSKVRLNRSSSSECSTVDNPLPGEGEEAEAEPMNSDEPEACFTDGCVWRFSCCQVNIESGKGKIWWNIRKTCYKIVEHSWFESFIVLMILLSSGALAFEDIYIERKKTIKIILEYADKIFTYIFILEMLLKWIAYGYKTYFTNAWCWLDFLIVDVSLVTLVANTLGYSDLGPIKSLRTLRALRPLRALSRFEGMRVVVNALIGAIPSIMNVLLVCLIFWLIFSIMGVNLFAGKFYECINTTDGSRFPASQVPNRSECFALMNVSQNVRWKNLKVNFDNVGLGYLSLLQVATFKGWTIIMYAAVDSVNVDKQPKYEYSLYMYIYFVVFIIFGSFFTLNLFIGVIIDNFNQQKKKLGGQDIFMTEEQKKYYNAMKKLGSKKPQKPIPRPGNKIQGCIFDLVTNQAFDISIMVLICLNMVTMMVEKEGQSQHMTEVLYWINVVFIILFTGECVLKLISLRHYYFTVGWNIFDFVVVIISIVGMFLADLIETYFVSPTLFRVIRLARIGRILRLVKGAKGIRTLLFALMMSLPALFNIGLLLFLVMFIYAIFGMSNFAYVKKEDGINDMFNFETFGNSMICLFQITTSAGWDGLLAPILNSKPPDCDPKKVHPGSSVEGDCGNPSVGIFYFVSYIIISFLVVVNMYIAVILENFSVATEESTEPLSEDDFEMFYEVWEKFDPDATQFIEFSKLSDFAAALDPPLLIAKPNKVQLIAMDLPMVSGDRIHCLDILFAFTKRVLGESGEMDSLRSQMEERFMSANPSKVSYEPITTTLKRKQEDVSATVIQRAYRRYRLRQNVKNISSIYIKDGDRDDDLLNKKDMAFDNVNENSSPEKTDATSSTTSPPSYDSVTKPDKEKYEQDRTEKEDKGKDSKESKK
Target sequence in this assay (Q07699 whole entry partner, looked up): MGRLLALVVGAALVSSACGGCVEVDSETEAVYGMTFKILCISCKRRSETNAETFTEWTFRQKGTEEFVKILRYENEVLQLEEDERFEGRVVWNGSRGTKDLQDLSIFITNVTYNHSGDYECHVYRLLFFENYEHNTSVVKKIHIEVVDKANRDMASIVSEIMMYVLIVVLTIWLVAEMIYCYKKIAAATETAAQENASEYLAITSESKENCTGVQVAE

As a reminder, the IC50 is the concentration that inhibits the measured activity by half. Regarding `COc1cc(S(=O)(=O)Nc2ccncn2)c(F)cc1N[C@H]1CC[C@H](c2cccc(C(F)(F)F)c2)C[C@@H]1N(C)C` [Example 241, 4-(((1S,2S,4S)-2-(Dimethylamino)-4-(3-(trifluoromethyl)phenyl)cyclohexyl)amino)-2-fluoro-5-methoxy-N-(pyrimidin-4-yl)benzenesulfonamide formate], the concentration for half-maximal inhibition (IC50) on hNav1.7 [1] was 1.48 nM; on hNav1.7 [2], 3.73 nM. Turning to `CN([C@H]1C[C@@H](O)C1)[C@H]1CCCC[C@@H]1Nc1cc(F)c(S(=O)(=O)Nc2nccs2)cc1Cl` [Example 156, 5-Chloro-2-fluoro-4-(((1S,2S)-2-((cis-3-hydroxycyclobutyl)(methyl)amino)cyclohexyl)amino)-N-(thiazol-2-yl)benzenesulfonamide formate], the half-maximal inhibitory concentration (IC50) is 18.9 nM at hNav1.7 [1] and 316 nM at hNav1.7 [2]. The like results for `CN([C@H]1C[C@H](O)C1)[C@H]1CCCC[C@@H]1Nc1cc(F)c(S(=O)(=O)Nc2nccs2)cc1Cl` [Example 157, 5-Chloro-2-fluoro-4-(((1S,2S)-2-((trans-3-hydroxycyclobutyl)(methyl)amino)cyclohexyl)amino)-N-(thiazol-2-yl)benzenesulfonamide formate] were, in that order, 24.1 nM and 337 nM. The like results for `O=S(=O)(Nc1ccncn1)c1cc(Cl)c(N[C@H]2CCCC[C@@H]2N2CCC[C@@](F)(CO)C2)cc1F` [Example 222, 5-Chloro-2-fluoro-4-(((1S,2S)-2-((S)-3-fluoro-3-(hydroxymethyl)piperidin-1-yl)cyclohexyl)amino)-N-(pyrimidin-4-yl)benzenesulfonamide] were, in that order, 124 nM and 464 nM. The like results for `CN(C1CCC1)[C@H]1C[C@@H](C(F)(F)F)CC[C@@H]1Nc1cc(F)c(S(=O)(=O)Nc2ccncn2)cc1Cl` [Example 180, 5-chloro-4-(((1S,2S,4S)-2-(cyclobutyl(methyl)amino)-4-(trifluoromethyl)cyclohexyl)amino)-2-fluoro-N-(pyrimidin-4-yl)benzenesulfonamide] were, in that order, 49.5 nM and 666 nM. As for `CN(C)[C@H]1CCCCC[C@@H]1Nc1cc(F)c(S(=O)(=O)Nc2nccs2)cc1Cl` [Example 144, 5-chloro-4-(((1S,2S)-2-(dimethylamino)cycloheptyl)amino)-2-fluoro-N-(thiazol-2-yl)benzenesulfonamide formate], the results for the IC50 at hNav1.7 [1] and at hNav1.7 [2] were 25.8 nM and 374 nM, respectively.

Consider `O=S(=O)(Nc1ccncn1)c1cc(Cl)c(N[C@H]2CCCC[C@@H]2N2CCCCC2)cc1F` [Example 108, 5-chloro-2-fluoro-4-(((1S,2S)-2-(piperidin-1-yl)cyclohexyl)amino)-N-(pyrimidin-4-yl)benzenesulfonamide], for which the figures for the 50% inhibitory concentration (IC50) at hNav1.7 [1] and at hNav1.7 [2] were 22.6 nM and 166 nM, respectively. The like results for `CN(C)[C@@H]1C[C@@H]2[C@H](C[C@H]1Nc1cc(F)c(S(=O)(=O)Nc3nccs3)cc1Cl)C2(Cl)Cl` [Example 195, 5-Chloro-4-(((1S,3R,4R,6R)-7,7-dichloro-4-(dimethylamino)bicyclo[4.1.0]heptan-3-yl)amino)-2-fluoro-N-(thiazol-2-yl)benzenesulfonamide formate] were, in that order, 1.4 nM and 8.11 nM.

In the case of `CN1CC[C@@H](C(=O)N(C)[C@H]2CCCC[C@@H]2Nc2cc(F)c(S(=O)(=O)Nc3nccs3)cc2Cl)C1` [Example 200, (R)—N-((1S,2S)-2-((2-chloro-5-fluoro-4-(N-(thiazol-2-yl)sulfamoyl)phenyl)amino)cyclohexyl)-N,1-dimethylpyrrolidine-3-carboxamide], the 50% inhibitory concentration (IC50) was 16.7 nM on hNav1.7 [1] and 150 nM at hNav1.7 [2]. On to `CN(C)[C@H]1C[C@@H](F)CC[C@@H]1Nc1cc(F)c(S(=O)(=O)Nc2nccs2)cc1Cl` [Example 192, 5-chloro-4-(((1S,2S,4S)-2-(dimethylamino)-4-fluorocyclohexyl)amino)-2-fluoro-N-(thiazol-2-yl)benzenesulfonamide], for which the figures for the IC50 at hNav1.7 [1] and on hNav1.7 [2] were 25.5 nM and 324 nM, respectively. The corresponding values for `CN(c1cnn(C)c1)[C@H]1CCCC[C@@H]1Nc1cc(F)c(S(=O)(=O)Nc2nccs2)cc1Cl` [Example 140, 5-chloro-2-fluoro-4-(((1S,2S)-2-(methyl(1-methyl-1H-pyrazol-4-yl)amino)cyclohexyl)amino)-N-(thiazol-2-yl)benzenesulfonamide] are 13.2 nM and 170 nM.

Take `O=S(=O)(Nc1nccs1)c1cc(Cl)c(N[C@H]2CCCC[C@@H]2N2CCC[C@H](O)C2)cc1F` [Example 153, 5-chloro-2-fluoro-4-(((1S,2S)-2-((S)-3-hydroxypiperidin-1-yl)cyclohexyl)amino)-N-(thiazol-2-yl)benzenesulfonamide]: the results for the IC50 on hNav1.7 [1] and on hNav1.7 [2] were 4.07 nM and 17.1 nM, respectively. As for `CN(C)[C@H]1C[C@H](c2cccc(C(F)(F)F)c2)CC[C@@H]1Nc1cc(F)c(S(=O)(=O)Nc2nccs2)cc1Cl` [Example 137, 5-chloro-4-(((1S,2S,4R)-2-(dimethylamino)-4-(3-(trifluoromethyl)phenyl)cyclohexyl)amino)-2-fluoro-N-(thiazol-2-yl)benzenesulfonamide], the IC50 was found to be 1.24 nM at hNav1.7 [1] and 3.57 nM on hNav1.7 [2]. Turning to `CC(=O)N1CC(N(C)[C@H]2CCCC[C@@H]2Nc2cc(F)c(S(=O)(=O)Nc3nccs3)cc2Cl)C1` [Example 148, 4-(((1S,2S)-2-((1-Acetylazetidin-3-yl)(methyl)amino)cyclohexyl)amino)-5-chloro-2-fluoro-N-(thiazol-2-yl)benzenesulfonamide], the figures for the concentration for half-maximal inhibition (IC50) on hNav1.7 [1] and at hNav1.7 [2] were 25.3 nM and 305 nM, respectively.

As for `Cc1nc(NS(=O)(=O)c2cc(Cl)c(N[C@H]3CCCC[C@@H]3N(C)C)cc2F)sc1F` [Example 211, 5-Chloro-4-(((1S,2S)-2-(dimethylamino)cyclohexyl)amino)-2-fluoro-N-(5-fluoro-4-methylthiazol-2-yl)benzenesulfonamide formate], the figures for the IC50 on hNav1.7 [1] and at hNav1.7 [2] were 120 nM and 1430 nM, respectively. As for `O=S(=O)(Nc1ccncn1)c1cc(Cl)c(N[C@@H]2CCCC[C@H]2N2CC3CC3C2)cc1F` (stereo partly drawn) [Example 152, 4-(((1R,2R)-2-(3-azabicyclo[3.1.0]hexan-3-yl)cyclohexyl)amino)-5-chloro-2-fluoro-N-(pyrimidin-4-yl)benzenesulfonamide], the half-maximal inhibitory concentration (IC50) at hNav1.7 [1] worked out at 1680 nM; on hNav1.7 [2] it was 2000 nM. As for `CN(C)[C@@H]1C[C@H]2[C@@H](C[C@H]1Nc1cc(F)c(S(=O)(=O)Nc3nccs3)cc1Cl)C2(Cl)Cl` [Example 197, 5-Chloro-4-(((1R,3R,4R,6S)-7,7-dichloro-4-(dimethylamino)bicyclo[4.1.0]heptan-3-yl)amino)-2-fluoro-N-(thiazol-2-yl)benzenesulfonamide formate], the IC50 is 3.85 nM on hNav1.7 [1] and 38 nM at hNav1.7 [2]. The like results for `CN(C)[C@H]1C[C@@H](c2ccccc2)CC[C@@H]1Nc1cc(F)c(S(=O)(=O)Nc2ccncn2)cc1Cl` [Example 232, 5-chloro-4-(((1S,2S,4S)-2-(dimethyamino)-4-phenylcyclohexyl)amino)-2-fluoro-N-(pyrimidin-4-yl)benzenesulfonamide formate] were, in that order, 10.5 nM and 47.8 nM. For `CN(CC1(F)CC1)[C@H]1CCCC[C@@H]1Nc1cc(F)c(S(=O)(=O)Nc2nccs2)cc1Cl` [Example 136, 5-chloro-2-fluoro-4-(((1S,2S)-2-(((1-fluorocyclopropyl)methyl)(methyl)amino)cyclohexyl)amino)-N-(thiazol-2-yl)benzenesulfonamide], the values for the IC50 on hNav1.7 [1] and on hNav1.7 [2] were 30.1 nM and 493 nM, respectively. The corresponding values for `CN(CC(O)CF)[C@H]1CCCC[C@@H]1Nc1cc(F)c(S(=O)(=O)Nc2nccs2)cc1Cl` (single isomer, unassigned) [Example 119] are 10.7 nM and 184 nM. The like results for `O=S(=O)(Nc1ccncn1)c1cc(Cl)c(N[C@H]2CCCC[C@@H]2N2CCC[C@](F)(CO)C2)cc1F` [Example 221, 5-Chloro-2-fluoro-4-(((1S,2S)-2-((R)-3-fluoro-3-(hydroxymethyl)piperidin-1-yl)cyclohexyl)amino)-N-(pyrimidin-4-yl)benzenesulfonamide] were, in that order, 62.9 nM and 298 nM. The corresponding values for `CN(C)[C@H]1CCCC[C@@H]1Oc1cc(F)c(S(=O)(=O)Nc2cccc(F)n2)cc1C1CC1` [Example 114, 5-Cyclopropyl-4-(((1S,2S)-2-(dimethylamino)cyclohexyl)oxy)-2-fluoro-N-(6-fluoropyridin-2-yl)benzenesulfonamide formate] are 33.1 nM and 264 nM. Regarding `CN(C)[C@H]1C[C@@H](c2cccc(C(F)(F)F)c2)CC[C@@H]1Nc1cc(F)c(S(=O)(=O)Nc2ccncn2)cc1F` [Example 220, 4-(((1S,2S,4S)-2-(Dimethylamino)-4-(3-(trifluoromethyl)phenyl)cyclohexyl)amino)-2,5-difluoro-N-(pyrimidin-4-yl)benzenesulfonamide], the IC50 at hNav1.7 [1] turned out to be 0.418 nM.
